The record followed here is US20220363667A1 (Nippon Chemiphar Co., Ltd., priority 2018, published 2022).

For orientation: IC50 means the concentration at which inhibition is half-maximal.

For one assay, the target named is T1, human Cav3.2 channels (Homo sapiens, UniProt O95180).
T1 construct: expressed in transfected cells
T1 sequence (O95180 whole entry): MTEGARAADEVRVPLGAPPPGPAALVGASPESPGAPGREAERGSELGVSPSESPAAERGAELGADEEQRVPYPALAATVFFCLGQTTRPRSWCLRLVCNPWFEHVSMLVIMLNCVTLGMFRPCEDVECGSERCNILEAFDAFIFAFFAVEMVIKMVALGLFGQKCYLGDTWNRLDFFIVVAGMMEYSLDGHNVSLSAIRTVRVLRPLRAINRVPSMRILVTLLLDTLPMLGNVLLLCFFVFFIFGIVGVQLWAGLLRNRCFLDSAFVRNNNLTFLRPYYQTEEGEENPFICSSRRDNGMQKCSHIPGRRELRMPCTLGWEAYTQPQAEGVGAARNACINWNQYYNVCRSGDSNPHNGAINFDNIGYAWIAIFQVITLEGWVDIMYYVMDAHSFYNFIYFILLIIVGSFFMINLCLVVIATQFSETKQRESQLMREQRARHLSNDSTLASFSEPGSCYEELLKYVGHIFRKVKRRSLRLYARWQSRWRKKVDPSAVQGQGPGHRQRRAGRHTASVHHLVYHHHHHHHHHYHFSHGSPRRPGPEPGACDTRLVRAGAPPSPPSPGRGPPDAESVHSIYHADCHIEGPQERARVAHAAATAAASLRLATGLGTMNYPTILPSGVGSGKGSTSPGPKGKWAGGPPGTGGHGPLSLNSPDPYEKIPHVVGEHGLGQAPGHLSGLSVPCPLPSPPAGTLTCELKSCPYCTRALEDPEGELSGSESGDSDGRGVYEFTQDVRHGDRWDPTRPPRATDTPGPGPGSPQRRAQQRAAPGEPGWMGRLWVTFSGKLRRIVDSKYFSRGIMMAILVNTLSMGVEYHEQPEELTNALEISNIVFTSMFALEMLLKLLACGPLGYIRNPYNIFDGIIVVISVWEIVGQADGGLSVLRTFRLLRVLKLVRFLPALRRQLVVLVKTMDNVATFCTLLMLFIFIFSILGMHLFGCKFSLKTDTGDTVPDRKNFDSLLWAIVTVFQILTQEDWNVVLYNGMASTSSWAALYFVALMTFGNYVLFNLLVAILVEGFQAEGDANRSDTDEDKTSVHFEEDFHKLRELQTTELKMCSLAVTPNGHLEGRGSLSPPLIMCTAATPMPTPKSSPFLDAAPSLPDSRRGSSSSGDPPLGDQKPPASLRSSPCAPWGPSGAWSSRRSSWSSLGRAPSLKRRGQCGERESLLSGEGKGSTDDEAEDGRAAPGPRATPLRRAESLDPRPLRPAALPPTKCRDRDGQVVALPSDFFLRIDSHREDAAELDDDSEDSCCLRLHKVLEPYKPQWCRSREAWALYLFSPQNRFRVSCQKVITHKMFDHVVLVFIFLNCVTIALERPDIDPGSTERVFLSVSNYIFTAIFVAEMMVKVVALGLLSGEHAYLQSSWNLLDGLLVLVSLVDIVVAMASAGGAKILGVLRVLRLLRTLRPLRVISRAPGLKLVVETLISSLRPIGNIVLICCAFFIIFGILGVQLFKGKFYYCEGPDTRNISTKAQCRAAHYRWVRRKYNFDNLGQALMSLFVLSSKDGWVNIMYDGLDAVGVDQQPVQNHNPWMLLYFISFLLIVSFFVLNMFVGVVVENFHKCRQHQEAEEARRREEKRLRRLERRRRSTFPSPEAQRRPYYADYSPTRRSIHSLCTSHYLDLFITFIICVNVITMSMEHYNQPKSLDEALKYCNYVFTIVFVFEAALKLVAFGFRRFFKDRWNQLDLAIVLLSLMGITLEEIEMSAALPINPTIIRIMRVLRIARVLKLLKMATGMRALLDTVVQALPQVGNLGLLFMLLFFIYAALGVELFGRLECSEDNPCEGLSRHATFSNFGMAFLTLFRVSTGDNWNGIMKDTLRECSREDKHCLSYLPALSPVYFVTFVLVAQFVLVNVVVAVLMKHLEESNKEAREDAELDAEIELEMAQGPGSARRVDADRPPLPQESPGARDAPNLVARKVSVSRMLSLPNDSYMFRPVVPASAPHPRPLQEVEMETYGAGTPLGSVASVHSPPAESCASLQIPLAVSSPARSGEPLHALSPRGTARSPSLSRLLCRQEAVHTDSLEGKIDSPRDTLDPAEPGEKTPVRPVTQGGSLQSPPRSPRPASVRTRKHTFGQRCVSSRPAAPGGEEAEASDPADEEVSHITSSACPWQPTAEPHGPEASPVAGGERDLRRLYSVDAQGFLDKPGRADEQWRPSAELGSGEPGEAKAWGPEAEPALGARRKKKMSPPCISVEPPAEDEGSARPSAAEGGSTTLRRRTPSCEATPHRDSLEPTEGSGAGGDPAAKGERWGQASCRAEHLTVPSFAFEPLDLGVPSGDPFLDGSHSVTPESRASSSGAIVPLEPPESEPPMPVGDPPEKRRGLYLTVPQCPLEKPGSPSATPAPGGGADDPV
Description: T-type calcium blocking action: intracellular calcium concentration in cells steadily expressing human Cav3.2 channels. The format is cell-based. The following applies: HEK293 cells steadily expressing human Cav3.2 channels; Fluo-4 AM fluorescence increase after KCl stimulus. From the text: (1) Construction of Cells Steadily Expressing Human Cav3.2 Channels
A sequence obtained by adding HindIII site and a kozak sequence (GCCACC) to the 5′-side of human Cav3.2 channel ORF (Open Reading Frame) gene and adding a KpnI site to the 3′-side of the gene, was incorporated into pcDNA3.1 (+) (Thermo Fisher Scientific, #V790-20), and the plasmid was introduced into HEK293 cells (ATCC No. CRL-1573) according to the protocol of FuGENE (registered trademark) HD Transfection Reagent (Promega, #E2311).
(2) Method for Measuring Intracellular Calcium Concentration
The cell strain steadily expressing human Cav3.2 channels as produced by the testing method (1) was seeded on a 96-well plate using DMEM including 10% FBS, and the cells were cultured for 48 hours under the conditions of 37° C. and 5% CO2. Subsequently, the medium was removed, and each of the wells were washed with buffer A and treated with 80 μL of a fluorescent dye solution including a mixed liquid of 22 μg of a fluorescent calcium indicator, Fluo-4 AM (Dojindo Molecular Technologies, Inc., #F311), 20 μL of dimethyl sulfoxide (DMSO), 1 μL of 10% Pluronic F-127 (Thermo Fisher Scientific, #P6866), and 4 mL of buffer A. After the cells were left to stand for 45 minutes at room temperature under light-shielded conditions, and then the cells were washed with buffer B. DMSO as a negative control and various test compound solutions each obtained by dissolving a test compound dissolved in DMSO, in buffer B so as to obtain a 10-fold concentration of the evaluation concentration, were introduced into respective wells. The final concentration of DMSO was adjusted to 0.1%. The cells were left to stand for another 15 minutes at room temperature under light-shielded conditions, and measurement was made using a microplate reader, EnVision (PerkinElmer Inc.) using the following method. First, the background fluorescence of each well was measured, subsequently an ionophore was introduced into each well, and the baseline fluorescence was measured. Subsequently, buffer B having 83.8 mM KCl added thereto was introduced, and an increase in fluorescence caused by calcium influx generated by the stimulus was measured for 10 seconds. The percentage inhibition was calculated from the maximum fluorescence increase value from the baseline, the logarithmic value of the test compound concentration and the inhibitory activity are plotted, and thereby the IC50 value was calculated. The measurement was carried out by observing the fluorescence at 510 nm that was emitted when the cells were irradiated with excitation light at 485 nm.
Buffer A: 140 mM NaCl, 5 mM KCl, 1 mM MgCl2, 0.5 mM CaCl2, 10 mM Glucose, 10 mM HEPES, pH 7.3
Buffer B: 137.9 mM Choline-Cl, 4.1 mM KCl, 1 mM MgCl2, 0.5 mM CaCl2, 10 mM Glucose, 10 mM HEPES, pH 7.3, equilibrium potential of potassium: −92 mV
A general note: A change in cytosolic calcium serves as a functional read-out for many receptors and channels.
Turning to `O=C(Cc1ccc(C2CC2)cc1)N[C@@H]1CCN(c2ccc(OCC(F)(F)F)nc2)C1` [Example 125, (R)-2-(4-cyclopropylphenyl)-N-(1-(6-(2,2,2-trifluoroethoxy)pyridin-3-yl)pyrrolidin-3-yl)acetamide], the IC50 was greater than 10000 nM.

With `O=C(N[C@@H]1CCN(c2ccnc(C(F)(F)F)c2)C1)[C@H]1C[C@@H]1c1nc2ccccc2[nH]1` [Example 62, (1S,2S)-2-(1H-benzo[d]imidazol-2-yl)-N—((R)-1-(2-(trifluoromethyl)pyridin-4-yl)pyrrolidin-3-yl)cyclopropane-1-carboxyamide], the IC50 came out at 410 nM.

`N#Cc1ccc2[nH]c(C3CC3C(=O)N[C@@H]3CCN(c4ccc(C(F)(F)F)nc4)C3)nc2c1` (single isomer, unassigned) [Example 61B]: the IC50 was 2200 nM.

`COc1ncc(N2CC[C@@H](NC(=O)[C@H]3C[C@@H]3c3nc4ccccc4[nH]3)C2)cc1C(F)(F)F` [Example 67, (1S,2S)-2-(1H-benzo[d]imidazol-2-yl)-N—((R)-1-(6-methoxy-5-(trifluoromethyl)pyridin-3-yl)pyrrolidin-3-yl) cyclopropane-1-carboxyamide]: the half-inhibitory concentration (IC50) was 29 nM.

For the molecule `O=C(N[C@@H]1CCN(c2ncc(C(F)(F)F)cn2)C1)[C@H]1C[C@@H]1c1nc2ccccc2[nH]1` [Example 56, (1S,2S)-2-(1H-benzo[d]imidazol-2-yl)-N—((R)-1-(5-(trifluoromethyl)pyrimidin-2-yl)pyrrolidin-3-yl)cyclopropane-1-carboxyamide], the IC50 was 290 nM.

For the molecule `O=C(N[C@@H]1CCN(c2cncc(C(F)(F)F)c2)C1)[C@H]1C[C@@H]1c1nc2cc(F)c(F)cc2o1` [Example 45], the half-inhibitory concentration (IC50) worked out at 11 nM.

On to `CS(=O)(=O)c1cccc(N2CC[C@@H](NC(=O)[C@H]3C[C@@H]3c3nc4ccccc4[nH]3)C2)c1` [Example 59, (1S,2S)-2-(1H-benzo[d]imidazol-2-yl)-N—((R)-1-(3-(methylsulfonyl)phenyl)pyrrolidin-3-yl)cyclopropane-1-carboxyamide], for which the IC50 amounted to 1800 nM.

In the case of `O=C(Cc1ccc(C2CC2)cc1)N[C@@H]1CCCN(c2ccc(C(F)(F)F)nc2)C1` [Example 130, (R)-2-(4-cyclopropylphenyl)-N-(1-(6-(trifluoromethyl)pyridin-3-yl)piperidin-3-yl)acetamide], the IC50 is greater than 10000 nM.

Regarding `NC(C(=O)N[C@@H]1CCN(c2cncc(C(F)(F)F)c2)C1)c1ccc(C2CC2)cc1` (stereo partly drawn) [Example 137B, 2-amino-2-(4-cyclopropylphenyl)-N((R)-1-(5-(trifluoromethyl)pyridin-3-yl)pyrrolidin-3-yl)acetamide], the IC50 worked out at 820 nM.

In the case of `N#Cc1cccc(N2CC[C@@H](NC(=O)[C@H]3C[C@@H]3c3nc4ccccc4[nH]3)C2)c1` [Example 60, (1S,2S)-2-(1H-benzo[d]imidazol-2-yl)-N—((R)-1-(3-cyanophenyl)pyrrolidin-3-yl)cyclopropane-1-carboxyamide], the IC50 came to 470 nM.

In the case of `O=C(N[C@@H]1CCCN(c2cncc(C(F)(F)F)c2)C1)[C@H]1C[C@@H]1c1nc2ccccc2[nH]1` [Example 186, (1S,23)-2-(1H-benzo[d]imidazol-2-yl)-N—((R)-1-(5-(trifluoromethyl)pyridin-3-yl)piperidin-3-yl)cyclopropane-1-carboxyamide], the IC50 stood at 190 nM.

Take `O=C(N[C@@H]1CCN(c2ccc(F)c(C(F)(F)F)c2)C1)[C@H]1C[C@@H]1c1nc2ccccc2[nH]1` [Example 57, (1S,2S)-2-(1H-benzo[d]imidazol-2-yl)-N—((R)-1-(4-fluoro-3-(trifluoromethyl)phenyl)pyrrolidin-3-yl)cyclopropane-1-carboxyamide]: the concentration for half-maximal inhibition (IC50) is 20 nM.

With `O=C(Cc1ccc(C2CC2)cc1)N[C@@H]1CCN(c2cc(C(F)(F)F)c3nccn3c2)C1` [Example 20, (R)-2-(4-cyclopropylphenyl)-N-(1-(8-(trifluoromethyl)imidazo[1,2-a]pyridin-6-yl)pyrrolidin-3-yl)acetamide], the IC50 is greater than 10000 nM.

`O=C(Cc1ccc(C2CC2)cc1)NC1CN(c2ccc(C(F)(F)F)cc2)C1` [Example 169, 2-(4-Cyclopropylphenyl)-N-(1-(4-(trifluoromethyl)phenyl)azetidin-3-yl)acetamide]: the IC50 was greater than 10000 nM.

For the molecule `O=C(N[C@@H]1CCN(c2ccc(F)c(C(F)(F)F)c2)C1)[C@H]1C[C@@H]1c1ncc2ccccc2n1` [Example 58, (1S,2S)—N—((R)-1-(4-fluoro-3-(trifluoromethyl)phenyl)pyrrolidin-3-yl)-2-(quinazolin-2-yl)cyclopropane-1-carboxyamide], the IC50 came out at 4400 nM.

In the case of `COc1ncc(C(F)(F)F)cc1N1CC[C@@H](NC(=O)Cc2ccc(C3CC3)cc2)C1` [Example 128, (R)-2-(4-cyclopropylphenyl)-N-(1-(2-methoxy-5-(trifluoromethyl)pyridin-3-yl)pyrrolidin-3-yl)acetamide], the IC50 was greater than 10000 nM.

With `N#Cc1ccc2[nH]c(C3CC3C(=O)N[C@@H]3CCN(c4ccc(C(F)(F)F)nc4)C3)nc2c1` (single isomer, unassigned) [Example 61A], the concentration for half-maximal inhibition (IC50) turned out to be 1100 nM.

Regarding `O=C(N[C@@H]1CCN(c2ccc(C(F)(F)F)nn2)C1)[C@H]1C[C@@H]1c1nc2ccccc2[nH]1` [Example 69, (1S,2S)-2-(1H-benzo[d]imidazol-2-yl)-N—((R)-1-(6-(trifluoromethyl)pyridazin-3-yl)pyrrolidin-3-yl)cyclopropane-1-carboxyamide], the concentration for half-maximal inhibition (IC50) came to 1200 nM.

Regarding `O=C(N[C@H]1CCN(c2ccc(C(F)(F)F)nc2)C1)[C@H]1C[C@@H]1c1nc2ccccc2[nH]1` [Example 55, (1S,25)-2-(1H-benzo[d]imidazol-2-yl)-N—((S)-1-(6-(trifluoromethyl)pyridin-3-yl)pyrrolidin-3-yl)cyclopropane-1-carboxyamide], the IC50 worked out at 470 nM.

The subject of the next assay is SD rats. Kind of assay: Rat formalin test. The assay is classed as in vivo. The following applies: po, 30 mg/kg orally once, pain behavior time from 15 to 30 minutes after formalin administration vs vehicle group, read-out: Inhibition ratio (pain behavior inhibition ratio). Here is the method: 30 mg/kg of a vehicle or a test substance was orally administrated to SD rats once, and according to the method described in McNamara C. R., Mandel-Brehm J., Bautista D. M., Siemens J., Deranian K. L., Zhao M., Hayward N. J., Chong J. A., Julius D., Moran M. M., Fanger C. M.: TRPA1 mediates formalin-induced pain. Proc. Natl. Acad. Sci. U.S.A. 104, 2007, 13525-13530, 50 μL of a 2.0% formalin solution as a pain-inducing substance was subcutaneously administered under the skin of the plantar plate of the right hind limb of each rat.
Regarding the evaluation, the pain behavior inhibition ratio was determined from the pain behavior time of each test substance-administered group with respect to the pain behavior time of the vehicle-administered group for 15 minutes measured from 15 minutes to 30 minutes after the administration.
Regarding `O=C(N[C@@H]1CCN(c2ccc(F)c(C(F)(F)F)c2)C1)[C@H]1C[C@@H]1c1nc2ccccc2[nH]1` [Example 57, (1S,2S)-2-(1H-benzo[d]imidazol-2-yl)-N—((R)-1-(4-fluoro-3-(trifluoromethyl)phenyl)pyrrolidin-3-yl)cyclopropane-1-carboxyamide], the inhibition in vivo at 30 mg/kg is less than 10%.

`NC(C(=O)N[C@@H]1CCN(c2cncc(C(F)(F)F)c2)C1)c1ccc(C2CC2)cc1` (stereo partly drawn) [Example 137, 2-amino-2-(4-cyclopropylphenyl)-N—((R)-1-(5-(trifluoromethyl)pyridin-3-yl)pyrrolidin-3-yl)acetamide]: the inhibition in vivo at 30 mg/kg was no less than 20%.
